These results are taken from patent US8906925B2, “Pyrido[4,3-B]indoles containing rigid moieties” (Medivation Technologies, Inc., priority 2008, dated 2014).

The target in one experiment is histamine receptor H1 (Homo sapiens, UniProt P35367). In words: Histamine H1 radioligand binding ([3H]Pyrilamine). The settings on record: for inhibition at 1 µM: read-out: Histamine Binding (1 μM) H1, percent inhibition of specific binding, 1 μM. The method in brief: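 Values are percent inhibition of specific [3H]pyrilamine (1.2 nM) binding with compounds at ≤1 μM (1% DMSO vehicle); 180 min incubation at 25 °C, pH 7.4 Tris buffer, on CHO-expressed human H1 receptor; 1 μM pyrilamine defined nonspecific binding, bound ligand counted after filtration.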
Sequence of histamine receptor H1 (P35367 whole entry): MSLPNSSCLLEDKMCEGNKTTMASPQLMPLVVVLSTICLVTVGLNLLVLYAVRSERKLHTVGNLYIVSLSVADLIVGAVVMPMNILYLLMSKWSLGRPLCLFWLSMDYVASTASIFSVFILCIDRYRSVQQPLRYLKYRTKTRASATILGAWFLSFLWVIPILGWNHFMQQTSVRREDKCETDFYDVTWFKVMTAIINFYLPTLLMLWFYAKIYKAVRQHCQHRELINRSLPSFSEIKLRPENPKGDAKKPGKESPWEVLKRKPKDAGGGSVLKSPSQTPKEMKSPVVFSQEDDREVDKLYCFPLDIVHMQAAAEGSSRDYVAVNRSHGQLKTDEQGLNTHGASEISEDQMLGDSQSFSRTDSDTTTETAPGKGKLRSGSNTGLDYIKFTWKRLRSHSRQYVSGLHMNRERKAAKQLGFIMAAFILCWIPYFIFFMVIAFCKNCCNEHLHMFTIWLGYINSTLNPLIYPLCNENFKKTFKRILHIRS

The target of experiment [1] is T1, human recombinant serotonin (5-Hydroxytryptamine) 5-HT2A receptor (Homo sapiens, UniProt P28223).
T1 construct: expressed in transfected cells; host or cells: Chinese hamster ovary (CHO-K1) cells
T1 sequence (P28223 whole entry): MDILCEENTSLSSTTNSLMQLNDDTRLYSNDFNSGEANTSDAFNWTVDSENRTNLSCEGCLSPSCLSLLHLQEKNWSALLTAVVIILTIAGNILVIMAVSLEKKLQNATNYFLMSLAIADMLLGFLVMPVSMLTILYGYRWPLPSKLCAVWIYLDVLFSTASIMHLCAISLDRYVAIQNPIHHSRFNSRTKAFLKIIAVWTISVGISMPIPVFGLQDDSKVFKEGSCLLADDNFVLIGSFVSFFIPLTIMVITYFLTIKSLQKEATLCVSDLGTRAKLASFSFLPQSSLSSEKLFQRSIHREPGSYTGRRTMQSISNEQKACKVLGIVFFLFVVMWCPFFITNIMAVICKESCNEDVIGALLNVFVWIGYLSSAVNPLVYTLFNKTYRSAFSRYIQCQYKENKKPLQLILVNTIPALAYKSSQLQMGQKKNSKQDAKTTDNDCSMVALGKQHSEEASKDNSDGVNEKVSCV
The experiment is described as follows: Serotonin 5-HT2A radioligand binding ([3H]Ketanserin). The settings on record: for inhibition at 1 µM: read-out: Inhibition of ligand binding, Serotonin 5-HT2A (percent inhibition of specific binding), compound at 1 μM; for inhibition at 0.1 µM: read-out: Inhibition of ligand binding, Serotonin 5-HT2A (percent inhibition of specific binding), compound at 0.1 μM. The protocol: Compounds of the invention were incubated with 0.5 nM [^3H]Ketanserin for 60 min. at 25° C. Non-specific binding was estimated in the presence of 1 μM Mianserin. Receptor proteins were filtered and washed, the filters were then counted to determine [^3H]Ketanserin specifically bound.

Experiment [2] concerns the target human dopamine D2L receptor (Homo sapiens, UniProt P14416). The experiment is described as follows: Dopamine D2L radioligand binding ([3H]Spiperone). The settings on record: compound at 1 μM; for Inhibition of ligand binding, Dopamine D2L: 1 µM. The text has this:
Non-specific binding was estimated in the presence of […] Haloperidol. Receptor proteins were filtered and washed, the filters were then counted to determine [^3H]Spiperone specifically bound. […] Biochemical assay results are presented as the percent inhibition of specific binding in Table 9.

In experiment [3] the target is T2, human recombinant serotonin (5-Hydroxytryptamine) 5-HT2C receptor (Homo sapiens, UniProt P28335).
T2 construct: expressed in transfected cells; host or cells: Chinese hamster ovary (CHO-K1) cells
T2 sequence (P28335 33-458): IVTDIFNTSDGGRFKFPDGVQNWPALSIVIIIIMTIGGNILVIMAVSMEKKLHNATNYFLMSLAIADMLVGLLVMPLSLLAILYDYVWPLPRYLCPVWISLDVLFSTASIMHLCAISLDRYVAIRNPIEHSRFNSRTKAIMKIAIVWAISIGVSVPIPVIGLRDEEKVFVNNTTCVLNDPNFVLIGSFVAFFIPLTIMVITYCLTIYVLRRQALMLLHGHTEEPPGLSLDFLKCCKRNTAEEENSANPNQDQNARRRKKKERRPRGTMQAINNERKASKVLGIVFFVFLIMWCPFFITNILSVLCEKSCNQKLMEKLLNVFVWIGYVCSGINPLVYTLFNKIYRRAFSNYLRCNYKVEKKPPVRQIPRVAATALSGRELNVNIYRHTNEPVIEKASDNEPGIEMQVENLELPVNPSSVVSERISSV
In words: Serotonin 5-HT2C radioligand binding ([3H]Mesulergine). The following applies: read-out: Inhibition of ligand binding, Serotonin 5-HT2C (percent inhibition of specific binding); for inhibition at 1 µM: compound at 1 μM; for inhibition at 0.1 µM: compound at 0.1 μM. The method in brief: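 Compounds tested at 1 μM or lower (1% DMSO vehicle) for displacement of 1 nM [3H]Mesulergine over 60 min at 25° C. Specific binding determined by filtration counting, with 1 μM Mianserin defining non-specific binding; values are percent inhibition.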

Experiment [4] has as its target T3, human recombinant adrenergic α1D receptor (Homo sapiens, UniProt P25100).
T3 construct: expressed in transfected cells; host or cells: human embryonic kidney (HEK-293) cells
T3 sequence (P25100 1-572): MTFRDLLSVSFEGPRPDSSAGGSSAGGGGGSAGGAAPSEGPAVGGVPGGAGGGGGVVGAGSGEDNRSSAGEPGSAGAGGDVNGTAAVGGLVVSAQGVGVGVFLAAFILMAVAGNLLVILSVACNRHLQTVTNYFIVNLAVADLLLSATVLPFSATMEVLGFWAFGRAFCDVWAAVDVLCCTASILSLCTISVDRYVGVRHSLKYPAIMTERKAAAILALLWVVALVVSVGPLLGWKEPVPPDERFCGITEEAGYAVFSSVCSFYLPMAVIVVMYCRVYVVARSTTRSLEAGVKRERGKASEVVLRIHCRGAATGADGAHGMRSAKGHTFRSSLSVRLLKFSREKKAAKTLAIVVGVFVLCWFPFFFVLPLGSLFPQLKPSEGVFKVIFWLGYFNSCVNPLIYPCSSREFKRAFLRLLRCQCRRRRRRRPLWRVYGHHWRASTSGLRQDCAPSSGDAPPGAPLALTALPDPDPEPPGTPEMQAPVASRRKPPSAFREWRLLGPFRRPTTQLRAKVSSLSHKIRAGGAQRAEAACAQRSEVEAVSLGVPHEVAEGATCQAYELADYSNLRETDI
The experiment is described as follows: Adrenergic α1D radioligand binding ([3H]Prozosin). The following applies: compound at 1 μM. The protocol: Compounds of invention were incubated with 0.6 nM [^3H]Prozosin for 60 min. at 25° C. Non-specific binding was estimated in the presence of 10 μM phentolamine. Receptor proteins were filtered and washed, the filters were then counted to determine [^3H]Prozosin specifically bound. Compounds were screened at 1 μM or lower, using 1% DMSO as vehicle. Biochemical assay results are presented as the percent inhibition of specific binding in Table 9.

Where [5] appears, read: percent inhibition of specific binding, read-out: Inhibition of ligand binding, Dopamine D2L.
Setting [6] is: percent inhibition of specific binding, read-out: Inhibition of ligand binding, Adrenergic α1D.
Setting [7] is: percent inhibition of specific binding.
[8] abbreviates: […] [3H]Spiperone, read-out: Inhibition of ligand binding, Dopamine D2L (percent inhibition of specific binding).
[9] abbreviates: read-out: Inhibition of ligand binding, Adrenergic α1D (percent inhibition of specific binding).

Each structure is given as a SMILES string. Read-outs that look alike come from different tables or passages of the source.

Sequence of human dopamine D2L receptor (P14416 whole entry): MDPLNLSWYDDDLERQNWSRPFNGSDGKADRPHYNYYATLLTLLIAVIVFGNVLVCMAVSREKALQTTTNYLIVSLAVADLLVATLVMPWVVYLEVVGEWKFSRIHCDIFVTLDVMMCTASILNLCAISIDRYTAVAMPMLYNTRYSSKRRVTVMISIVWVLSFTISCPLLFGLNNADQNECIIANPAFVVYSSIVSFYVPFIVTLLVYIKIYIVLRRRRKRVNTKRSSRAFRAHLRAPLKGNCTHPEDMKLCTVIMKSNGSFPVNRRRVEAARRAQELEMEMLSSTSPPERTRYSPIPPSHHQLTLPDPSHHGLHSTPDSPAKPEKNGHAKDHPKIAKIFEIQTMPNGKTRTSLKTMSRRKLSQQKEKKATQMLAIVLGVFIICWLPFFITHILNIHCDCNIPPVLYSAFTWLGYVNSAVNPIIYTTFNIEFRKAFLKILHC

For orientation: inhibition means the change of the read-out against control, counted positive when it falls. For `CN1CCc2c(c3cc(Cl)ccc3n2CC(C)(O)c2ccncc2)C1` (stereo not shown) [Compound 63, 1-(8-chloro-1,2,3,4-tetrahydro-2-methylpyrido[4,3-b]indol-5-yl)-2-(pyridin-4-yl)propan-2-ol], the inhibition at 1 µM is 46% at histamine receptor H1; 95% in experiment [1]; 17% in experiment [2] (setting [5]); 95% in experiment [3]; 84% in experiment [4] (setting [6]).

As to `Cc1ccc(C(O)Cn2c3c(c4cc(C)ccc42)CN(C)CC3)cc1` (racemic) [Compound 43, racemic-2-(1,2,3,4-tetrahydro-2,8-dimethylpyrido[4,3-b]indol-5-yl)-1-p-tolylethanol], the inhibition at 1 µM is 81% on histamine receptor H1; 100% in experiment [1]; 65% in experiment [2] (setting [5]); 96% in experiment [3]; 87% in experiment [4] (setting [6]). The inhibition at 0.1 µM in experiment [3] is 81%.

Turning to `CCOC(=O)/C=C(/Cn1c2c(c3cc(C)ccc31)CN(C)CC2)c1ccccc1` [Compound No. 347, (E)-ethyl 4-(2,8-dimethyl-3,4-dihydro-1H-pyrido[4,3-b]indol-5(2H)-yl)-3-phenylbut-2-enoate], the “Histamine Binding (1 μM) H1, percent inhibition of specific binding” value at histamine receptor H1 was found to be 56%. Also, the inhibition at 1 µM amounted to 42% on histamine receptor H1; 100% in experiment [1]; 27% in experiment [2] (setting [5]); 104% in experiment [3]; 90% in experiment [4] (setting [6]). For the same compound, in experiment [2] (setting [7]), the “Inhibition of ligand binding, Dopamine D2L” value turned out to be 30%.

Turning to `Cc1ccc2c(c1)c1c(n2CC(O)c2ccncc2)CCN(C)C1` (stereo not shown) [Compound 180, 2-(2,8-dimethyl-3,4-dihydro-1H-pyrido[4,3-b]indol-5(2H)-yl)-1-(pyridin-4-yl)ethanol], the inhibition at 1 µM worked out at 84% at histamine receptor H1; 86% in experiment [1]; 10% in experiment [2] (setting [5]); 74% in experiment [3]; 60% in experiment [4] (setting [6]).

Turning to `Cc1ccc2c(c1)c1c(n2CC(O)(c2ccccc2)c2ccc(F)cc2)CCN(C)C1` (stereo not shown) [Compound No. 176, 2-(2,8-dimethyl-3,4-dihydro-1H-pyrido[4,3-b]indol-5(2H)-yl)-1-(4-fluorophenyl)-1-phenylethanol], the inhibition at 1 µM is 21% on histamine receptor H1; 97% in experiment [1]; 6% in experiment [2] (setting [5]); 99% in experiment [3]; 42% in experiment [4] (setting [6]).

In the case of `C=C(Cn1c2c(c3cc(Cl)ccc31)CN(C)CC2)c1ccc(F)cc1` [Compound 128, 8-chloro-5-(2-(4-fluorophenyl)allyl)-2,3,4,5-tetrahydro-2-methyl-1H-pyrido[4,3-b]indole], the inhibition at 1 µM came to 98% on histamine receptor H1; 100% in experiment [1]; 97% in experiment [2] (setting [5]); 100% in experiment [3]; 91% in experiment [4] (setting [6]). In experiment [1], the inhibition at 0.1 µM came out at 99%.

With `COc1ccc(C#Cn2c3c(c4cc(Cl)ccc42)CN(C)CC3)cc1F` [Compound No. 477, 8-chloro-5-((3-fluoro-4-methoxyphenyl)ethynyl)-2-methyl-2,3,4,5-tetrahydro-1H-pyrido[4,3-b]indole], the inhibition at 1 µM turned out to be 17% on histamine receptor H1; 95% in experiment [1]; 25% in experiment [2] (setting [8]); 99% in experiment [3]; 79% in experiment [4] (setting [9]).

As for `Cc1ccc2c(c1)c1c(n2/C=C/c2ccccc2)CCN(C)C1` [Compound 202, (E)-2,8-dimethyl-5-styryl-2,3,4,5-tetrahydro-1H-pyrido[4,3-b]indole], the inhibition at 1 µM at histamine receptor H1 turned out to be 100%; in experiment [1] it was 101%; in experiment [2] (setting [5]), 83%; in experiment [3] it was 101%; in experiment [4] (setting [6]) it was 98%.

As to `CCOC(=O)/C=C(/Cn1c2c(c3cc(C)ccc31)CN(C)CC2)c1ccc(F)cc1` [Compound No. 350, (E)-ethyl 4-(2,8-dimethyl-3,4-dihydro-1H-pyrido[4,3-b]indol-5(2H)-yl)-3-(4-fluorophenyl)but-2-enoate], on histamine receptor H1, the “Histamine Binding (1 μM) H1, percent inhibition of specific binding” value is given as 37%. The inhibition at 1 µM at histamine receptor H1 was 27%; in experiment [1], 100%; in experiment [2] (setting [8]), 12%; in experiment [3], 87%; in experiment [4] (setting [9]) it was 85%. In addition, in experiment [2] ([…] [3H]Spiperone), the “Inhibition of ligand binding, Dopamine D2L (percent inhibition of specific binding)” value is reported as 21%.

In the case of `Cc1ccc2c(c1)c1c(n2CC(O)c2ccc(F)cc2)CCN(C)C1` (stereo not shown) [Compound 172, 2-(2,8-dimethyl-3,4-dihydro-1H-pyrido[4,3-b]indol-5(2H)-yl)-1-(4-fluorophenyl)ethanol], the inhibition at 1 µM on histamine receptor H1 turned out to be 95%; in experiment [1] it was 91%; in experiment [2] (setting [5]) it was 36%; in experiment [3], 97%; in experiment [4] (setting [6]), 88%.

In the case of `COc1ccc(/C(C)=C/n2c3c(c4cc(Cl)ccc42)CN(C)CC3)cc1` [Compound 92, (E)-8-chloro-2,3,4,5-tetrahydro-5-(2-(4-methoxyphenyl)prop-1-enyl)-2-methyl-1H-pyrido[4,3-b]indole], the inhibition at 1 µM on histamine receptor H1 is 44%; in experiment [1], 100%; in experiment [2] (setting [5]) it was 83%; in experiment [3] it was 91%; in experiment [4] (setting [6]), 99%. Besides, the “Inhibition of ligand binding, Dopamine D2L” value in experiment [2] (setting [7]) amounted to 97%.

In the case of `C/C(=C\n1c2c(c3cc(Cl)ccc31)CN(C)CC2)c1ccncc1` [Compound 90, (E)-8-chloro-2,3,4,5-tetrahydro-2-methyl-5-(2-(pyridin-4-yl)prop-1-enyl)-1H-pyrido[4,3-b]indole], the “Histamine Binding (1 μM) H1, percent inhibition of specific binding” value at histamine receptor H1 was determined as 59%. For the same compound, the inhibition at 1 µM came to 48% at histamine receptor H1; 100% in experiment [1]; 93% in experiment [2] (setting [5]); 97% in experiment [3]; 93% in experiment [4] (setting [6]). For the same compound, the inhibition at 0.1 µM turned out to be 97% in experiment [1] and 85% in experiment [3]. In addition, the “Inhibition of ligand binding, Dopamine D2L” value in experiment [2] (setting [7]) came to 98%.

`CN1CCc2c(c3cc(Cl)ccc3n2C/C=C/c2ccc(F)cc2)C1` [Compound 126, 5-(4-fluorocinnamyl)-8-chloro-2,3,4,5-tetrahydro-2-methyl-1H-pyrido[4,3-b]indole]: the inhibition at 1 µM on histamine receptor H1 came to 103%; in experiment [1] it was 102%; in experiment [2] (setting [5]), 84%; in experiment [3] it was 84%; in experiment [4] (setting [6]), 50%.
